Laboratory results from patent US20250127843A1, “ADRENOCORTICOTROPIC HORMONE PEPTIDE COMPOSITIONS AND METHODS OF USE” (FERRING B.V., priority 2021, published 2025).
No end group written: not given here.

What was measured:
[1] = system: BDNF and NGF genes; details: cited from earlier work
[2] = system: Bcl-2; details: cited from earlier work
[3] = system: membranes of the basal ganglia and cerebral cortex; details: cited from earlier work
[4] = system: cerebellar granule neurons; details: during glutamate neurotoxicity; cited from earlier work
[5] = system: nuclear membranes of nerve cells of the basal forebrain, hippocampus and cerebellum; details: cited from earlier work
[6] = system: PCNA; details: cited from earlier work
[7] = system: damaged cells under conditions of oxidative stress; details: oxidative stress caused by short-term incubation with hydrogen peroxide; cited from earlier work
[8] = Stability of the peptide in aqueous test formulations: change in impurity content by UPLC after storage; type: physicochemical; details: for Δ Total impurities (difference in % (w/w) of impurities from Day 0 to Day 14) / Δ impurity at retention time 1.293 min (difference in % (w/w) of impurities from Day 0 to Day 14) / Δ impurity at retention time 4.923 min (difference in % (w/w) of impurities from Day 0 to Day 14) / Δ impurity at retention time 5.821 min (difference in % (w/w) of impurities from Day 0 to Day 14) / Δ impurity at retention time 6.267 min (difference in % (w/w) of impurities from Day 0 to Day 14) / Δ impurity at retention time 7.268 min (difference in % (w/w) of impurities from Day 0 to Day 14) / Δ impurity at retention time 10.47 min (difference in % (w/w) of impurities from Day 0 to Day 14): UPLC
Experimental: The effect of methionine on the stability of the peptide in an aqueous composition was evaluated. Test formulations of the peptide (1 mg/ml) in aqueous acetate buffer at pH 5.5 were prepared with or without methionine (1 mg/ml).
The effect of pH on the stability of the peptide in an aqueous composition was evaluated. Test formulations of the peptide in water (1 mg/ml) were prepared at a pH of 4.5, 5.0 or 5.5 using an acetate buffer. […]

[9] = peptide 1 mg/ml in water, acetate buffer pH 4.5, 14 days at 60° C.
[10] = peptide 1 mg/ml in water, acetate buffer pH 5.0, 14 days at 60° C.
[11] = peptide 1 mg/ml, aqueous acetate buffer pH 5.5, 14 days at 60° C.

## MEHFPGP [Peptide, Met-Glu-His-Phe-Pro-Gly-Pro]
[1]
  transcription of the neurotrophin BDNF and NGF genes: rapid induction of the transcription
[2]
  levels of Bcl-2: increase levels of Bcl-2
[3]
  specific binding to membranes: specifically bind to the membranes of the basal ganglia and cerebral cortex
[4]
  survival of cerebellar granule neurons: significantly increase the survival
[5]
  binding to nuclear membranes of nerve cells: bind to the nuclear membranes of nerve cells of the basal forebrain, hippocampus and cerebellum
[6]
  expression of the nuclear protein PCNA: significant increase in the expression
[7]
  number of damaged cells: reduce the number of damaged cells
[8]; pH 4.5, 5.0 or 5.5 acetate buffer, 14 days at 60° C.
  stability of the peptide as a function of pH: most stable at pH 4.5
[8]; [9]
  Δ Total impurities (difference in % (w/w) of impurities from Day 0 to Day 14): 2.55 % (w/w)
  Δ impurity at retention time 1.293 min (difference in % (w/w) of impurities from Day 0 to Day 14): 0.3 % (w/w)
  Δ impurity at retention time 4.923 min (difference in % (w/w) of impurities from Day 0 to Day 14): 1.43 % (w/w)
  Δ impurity at retention time 5.821 min (difference in % (w/w) of impurities from Day 0 to Day 14): 0.28 % (w/w)
  Δ impurity at retention time 6.267 min (difference in % (w/w) of impurities from Day 0 to Day 14): 0 % (w/w)
  Δ impurity at retention time 7.268 min (difference in % (w/w) of impurities from Day 0 to Day 14): 0.28 % (w/w)
  Δ impurity at retention time 10.47 min (difference in % (w/w) of impurities from Day 0 to Day 14): 0.1 % (w/w)
[8]; [10]
  Δ Total impurities (difference in % (w/w) of impurities from Day 0 to Day 14): 4.07 % (w/w)
  Δ impurity at retention time 1.293 min (difference in % (w/w) of impurities from Day 0 to Day 14): 0.55 % (w/w)
  Δ impurity at retention time 4.923 min (difference in % (w/w) of impurities from Day 0 to Day 14): 2.58 % (w/w)
  Δ impurity at retention time 5.821 min (difference in % (w/w) of impurities from Day 0 to Day 14): 0.12 % (w/w)
  Δ impurity at retention time 6.267 min (difference in % (w/w) of impurities from Day 0 to Day 14): 0.11 % (w/w)
  Δ impurity at retention time 7.268 min (difference in % (w/w) of impurities from Day 0 to Day 14): 0.28 % (w/w)
  Δ impurity at retention time 10.47 min (difference in % (w/w) of impurities from Day 0 to Day 14): 0.24 % (w/w)
[8]; [11]
  Δ Total impurities (difference in % (w/w) of impurities from Day 0 to Day 14): 8.49 % (w/w)
  Δ impurity at retention time 1.293 min (difference in % (w/w) of impurities from Day 0 to Day 14): 1.19 % (w/w)
  Δ impurity at retention time 4.923 min (difference in % (w/w) of impurities from Day 0 to Day 14): 5.58 % (w/w)
  Δ impurity at retention time 5.821 min (difference in % (w/w) of impurities from Day 0 to Day 14): 0.1 % (w/w)
  Δ impurity at retention time 6.267 min (difference in % (w/w) of impurities from Day 0 to Day 14): 0.27 % (w/w)
  Δ impurity at retention time 7.268 min (difference in % (w/w) of impurities from Day 0 to Day 14): 0.31 % (w/w)
  Δ impurity at retention time 10.47 min (difference in % (w/w) of impurities from Day 0 to Day 14): 0.84 % (w/w)
